Experimental data from patent US20200206198A1, “CFTR CHANNEL ACTIVATOR FOR USE IN THE TREATMENT AND/OR PREVENTION OF GLUTEN SENSITIVITY CONDITIONS” (priority 2017, published 2020).

Experiments:
PM-associated CFTR = target: T1, PM-associated CFTR (Homo sapiens, UniProt P13569); experiment: CFTR plasma membrane disposal in Caco-2 cells (membrane fractions); assay type: cell-based
T1 construct: Immunoprecipitations of endogenous proteins were performed on 500 μg of lysates from Caco-2 cells; host or cells: Caco-2, T84
Description: (§1) Human colon adenocarcinoma-derived Caco-2 and T84 cells were obtained from the ATCC. Cells were maintained in T25 flask in Modified Eagle Medium (MEM) for Caco-2, or Ham's F12+DMEM (1:1) for T84, supplemented with 10% fetal bovine serum (FBS), 2 mM Glutamine+1% Non Essential Amino Acids (NEAA) and the antibiotics penicillin\streptomycin (100 units/ml) (all reagents from Lonza) (Luciani, A., et al. 2010. Cells were grown in Transwells (Corning, 3470 or 3460) under the normal condition (Luciani, A., et al. 2012). Briefly, 8×10^4 or 5×10^5 cells were seeded in 6.5-mm diameter or 12-mm diameter, respectively, and grown until the RT reached 800 to 1,200 Ω·cm2. Transwells with a pore size of 0.4 μm were used. Medium in both the apical and basolateral chambers was changed every other day. Cells were treated with 20 μg/ml of either α-gliadin peptide P31-43 or […] or scrambled PGAV or modified P31-43 either biotin-tagged or not, for different time point (from 1 h short challenge up to 24 h). Cells were also treated with 50 or 100 μg/ml of P57-68 or PGAV peptides for 3 h. Caco-2 or T84 cells were also treated with: CFTR potentiators VX-770 (10 μM) or VX-532 (20 μM) (Selleck chemicals) or Genistein (10 μM) (Sigma-Aldrich) or in presence or absence of CFTR inhibitor172 (CFTRinh172, 20 μM) or 3-methyl-adenine (3-MA, 20 μM) (Calbiochem), Z-DON (20 nM, Zedira) or BAPTA-AM (10 μM, Calbiochem).
(§2) The whole lysate or membrane fraction proteins of cell lines and mice intestine homogenates were obtained from treated and untreated cells or mice as described. The equal amount of protein were resolved by SDS-PAGE gel and blotted with antibodies against: SQSTM1, (Sigma Aldrich, 108k4767) 1:1000, PPARγ (Santa Cruz Biotechnology, sc7273) 1:500, BECN1 (Abcam, ab58878) 1:1000, CFTR clone M3A7 (Abcam, ab4067) 1:500, phospho-ERK1/2 (php42/44, Cell Signaling Technology, #91101) 1:1000, UVRAG (Santa Cruz Biotechnology sc8215) 1:1000, NHERF-1 (BD, 611161) 1:1000, EZRIN (BD, 610603) 1:1000, hVps34 (SigmaV9764) 1:300, biotin (Abcam, ab1227) 1:2000, PKAr2a (BD, 610625) 1:500, Ubiquitin (Cell Signaling clone P4D1, #3936) 1:1000, CHIP (Calbiochem PC711) 1:500, Caspase-1 p10 (M-20) (Santa Cruz Biotechnology, sc-514) 1:200, NLRP3 (Abcam, ab4207), 1:500, IDO1 (monoclonal; cv152) 1:1000^[80], used as primary antibodies. Normalization was performed by probing the membrane with anti-β-actin (Cell Signaling, #4970) 1:1000, anti-Gapdh (Sigma-Aldrich, G8795) 1:1000 and anti-flottilin (Abcam ab15148) 1:1000 antibodies. Immunoprecipitations of endogenous proteins were performed on 500 μg of lysates from Caco-2 cells. The proteins were incubated for 12-18 h at 4° C. with 10 ug\ml of specific antibody followed by the addition of Protein A/G-agarose beads for 4 h at 4° C. The beads were then washed three times with lysis buffer and Laemmli's sample buffer was added to the samples. The membranes were then blotted with: CFTR clone CF3 (Abcam, ab2784) 1:1000, TG2 (clone CUB7402; NeoMarkers) 1:1000, CHIP (Calbiochem PC711) 1:500, Ubiquitin (Cell Signaling clone P4D1 3936), isopeptide (Abcam 422) 1:1000, PKAR2 (BD 610625) 1:500.
Protein from membrane fractionation were obtained as described. Cells were homogenized with a PotterElvehjem pestle and centrifuged at 2300×g for 15 min at 4° C. […]

CFTR = target: T2, CFTR (Homo sapiens, UniProt P13569); experiment: CFTR channel function in intestinal epithelial cells (forskolin-induced Isc in Ussing chambers; SPQ iodide efflux); assay type: cell-based; conditions: VX-770 10 μM, VX-532 20 μM, Genistein 10 μM; Caco-2 or T84 cells
T2 construct: Immunoprecipitations of endogenous proteins were performed on 500 μg of lysates from Caco-2 cells; host or cells: Caco-2, T84
Description: Human colon adenocarcinoma-derived Caco-2 and T84 cells (Barone, M. V. et al. 2014; Luciani, A. et al. 2010) were obtained from the ATCC. Cells were maintained in T25 flask in Modified Eagle Medium (MEM) for Caco-2, or Ham's F12+DMEM (1:1) for T84, supplemented with 10% fetal bovine serum (FBS), 2 mM Glutamine+1% Non Essential Amino Acids (NEAA) and the antibiotics penicillin\streptomycin (100 units/ml) (all reagents from Lonza). Caco-2 cells were grown in Transwells (Corning, 3470 or 3460) under the normal condition. Briefly, 8×10^4 or 5×10^5 cells were seeded in 6.5-mm diameter or 12-mm diameter, respectively, and grown until the RT reached 800 to 1,200 Ω·cm^2. Transwells with a pore size of 0.4 μm were used. Medium in both the apical and baso lateral chambers was changed every other day. Cells were treated with 20 μg/ml of either with the α-gliadin peptide comprising the P31-43 amino acid sequence of α-gliadin LGQQQPFPPQQPY (SEQ ID 1) (below referred to as P31-43), which is known to induce an enterocyte stress response (Meresse, B. et al.2009; Barone, M. V. et al. 2014; Luciani, A. et al. 2010), the T-cell activating α-gliadin peptide comprising the P57-68 amino acid sequence of α-gliadin (QLQPFPQPQLPY SEQ ID 2)) (below referred to as P57-68) (Maiuri, L., et al. 2003; Meresse, B. et al.2009; 30 Barone, M. V. et al. 2014), or the scrambled GAVAAVGVVAGA (SEQ ID 3) control peptide (below referred to as PGAV), or with different modified P31-43, either biotin-tagged or not, for different time points (from 1 h short challenge up to 24 h). Cells were also treated with 50 or 100 5 μg/ml of P57-68 or PGAV peptides for 3 h.
Caco-2 or T84 cells were also treated with: CFTR potentiators VX-770 (Ivacaftor) (10 μM) or VX-532 (20 μM) (Selleck chemicals) or Genistein (10 μM) (Verkman, A. S. et al. 2005; Jih, K. Y. et al. 2013) (Sigma-Aldrich) or in presence or absence of CFTR inhibitor172 (CFTRinh172, 20 μM).
Human colon adenocarcinoma-derived Caco-2 and T84 cells were obtained from the ATCC. Cells were maintained in T25 flask in Modified Eagle Medium (MEM) for Caco-2, or Ham's F12+DMEM (1:1) for T84, supplemented with 10% fetal bovine serum (FBS), 2 mM Glutamine+1% Non Essential Amino Acids (NEAA) and the antibiotics penicillin\streptomycin (100 units/ml) (all reagents from Lonza) (Luciani, A., et al. 2010. Cells were grown in Transwells (Corning, 3470 or 3460) under the normal condition (Luciani, A., et al. 2012). Briefly, 8×10^4 or 5×10^5 cells were seeded in 6.5-mm diameter or 12-mm diameter, respectively, and grown until the RT reached 800 to 1,200 Ω·cm2. Transwells with a pore size of 0.4 μm were used. Medium in both the apical and basolateral chambers was changed every other day. […]

Caco-2 cells = experiment: Endosomal trafficking proteins in Caco-2 cells (immunoblot, endosomal fractions); assay type: cell-based, human; conditions: lost if 3-MA or CFTR inhibitor added
Description: as §1
as §2, with “The beads were then washed three times with lysis buffer and Laemmli's sample buffer was added to the samples. The membranes were then blotted with: CFTR clone CF3 (Abcam, ab2784) 1:1000, TG2 (clone CUB7402; NeoMarkers) 1:1000, CHIP (Calbiochem PC711) 1:500, Ubiquitin (Cell Signaling clone P4D1 3936), isopeptide (Abcam 422) 1:1000, PKAR2 (BD 610625) 1:500.” left out

T1 sequence (P13569 whole entry): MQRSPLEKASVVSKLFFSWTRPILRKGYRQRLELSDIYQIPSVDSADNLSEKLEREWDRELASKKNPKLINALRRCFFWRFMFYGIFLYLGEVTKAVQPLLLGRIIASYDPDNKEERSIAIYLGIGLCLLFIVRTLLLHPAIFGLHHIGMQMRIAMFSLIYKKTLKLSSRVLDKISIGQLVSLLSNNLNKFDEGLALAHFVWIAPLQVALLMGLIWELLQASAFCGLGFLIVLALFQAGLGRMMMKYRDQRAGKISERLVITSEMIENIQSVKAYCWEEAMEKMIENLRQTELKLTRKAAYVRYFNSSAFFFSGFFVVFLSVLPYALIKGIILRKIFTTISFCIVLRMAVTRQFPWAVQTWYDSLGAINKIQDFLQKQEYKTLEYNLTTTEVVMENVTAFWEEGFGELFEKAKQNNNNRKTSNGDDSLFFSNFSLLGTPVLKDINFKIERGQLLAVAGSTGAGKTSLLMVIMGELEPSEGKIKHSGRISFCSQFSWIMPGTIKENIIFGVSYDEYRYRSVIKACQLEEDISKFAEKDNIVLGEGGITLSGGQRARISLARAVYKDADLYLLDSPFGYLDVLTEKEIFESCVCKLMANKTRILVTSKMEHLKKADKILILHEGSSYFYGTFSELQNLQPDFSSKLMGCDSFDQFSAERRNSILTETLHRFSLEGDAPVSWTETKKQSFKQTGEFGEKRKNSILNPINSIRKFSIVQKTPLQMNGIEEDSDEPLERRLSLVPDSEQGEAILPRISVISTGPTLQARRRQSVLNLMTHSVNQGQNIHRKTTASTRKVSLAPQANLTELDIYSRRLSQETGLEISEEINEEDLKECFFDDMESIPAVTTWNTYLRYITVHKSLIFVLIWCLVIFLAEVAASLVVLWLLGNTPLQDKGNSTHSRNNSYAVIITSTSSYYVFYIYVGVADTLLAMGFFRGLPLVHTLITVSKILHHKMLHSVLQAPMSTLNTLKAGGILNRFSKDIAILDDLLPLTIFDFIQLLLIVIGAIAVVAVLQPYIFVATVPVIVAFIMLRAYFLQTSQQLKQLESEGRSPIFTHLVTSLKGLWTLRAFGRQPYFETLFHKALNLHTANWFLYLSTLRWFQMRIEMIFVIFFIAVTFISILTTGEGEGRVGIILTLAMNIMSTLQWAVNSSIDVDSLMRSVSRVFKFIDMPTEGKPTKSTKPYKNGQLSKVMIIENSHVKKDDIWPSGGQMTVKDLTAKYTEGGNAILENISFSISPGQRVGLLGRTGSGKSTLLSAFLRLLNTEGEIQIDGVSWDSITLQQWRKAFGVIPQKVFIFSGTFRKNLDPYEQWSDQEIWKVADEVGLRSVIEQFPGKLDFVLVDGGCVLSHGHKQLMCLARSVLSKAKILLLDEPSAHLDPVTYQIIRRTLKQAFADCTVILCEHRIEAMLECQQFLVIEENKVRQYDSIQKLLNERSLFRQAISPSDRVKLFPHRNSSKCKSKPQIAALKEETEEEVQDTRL
T2 sequence (P13569 whole entry): as above

In the case of `Cc1ccc(O)c(-c2cc(-c3ccccc3)[nH]n2)c1` [VX-532, 4-Methyl-2-(5-phenyl-1Hpyrazol-3-yl)-phenol], the “effect on P31-43-induced reduction of PM-associated CFTR” value (PM-associated CFTR) is reported as “counteracted”, the “prevention of P31-43 induced decrease of CFTR function” value (CFTR) is reported as “Prevents P31-43 Induced Inhibition of CFTR Function” and the “effect on P31-43-induced reduction of BECN1, hVps34, UVRAG, Rab5 and Rab7” value (Caco-2 cells) is reported as “counteracted”.
